These are literature values, as cited in PubChem BioAssay AID1259409 (Chemical Carcinogenesis Research Information System (CCRIS), 2018).

This data set has as its system rodent chemically induced tumor inhibition, incidence and multiplicity. The data set is described as follows: CCRIS tumor inhibitor studies.

On to `CC(C)C[C@H]1C(=O)N2CCC[C@H]2[C@]2(O)O[C@](NC(=O)[C@@H]3C=C4c5cccc6[nH]c(Br)c(c56)C[C@H]4N(C)C3)(C(C)C)C(=O)N12`, for which the “tumour outcome (control, treated, inhibition, significance)” value (Carcinogen: 7,12-DIMETHYLBENZ[A]ANTHRACENE, 57-97-6, Dose [Inhibitor]: 0.4 MG/D FROM 90 TO 150 D OF AGE BEGINNING 30 D POST CARCINOGEN TREATMENT (STUDY DURATION: 9 MO AFTER DMBA TREATMENT), Route [Inhibitor]: SUBCUTANEOUS, Species: RAT, Strain/Sex: LONG-EVANS/FEMALE, Target Tissue: Type of Lesion: MAMMARY GLAND: CARCINOMA, Dose [Carcinogen]: 20 MG ONCE AT 60 D OF AGE, Promoter: NONE USED) was 20%, 38%, -90%, not significant; the “tumour outcome (control, treated, inhibition, significance)” value (Carcinogen: 7,12-DIMETHYLBENZ[A]ANTHRACENE, 57-97-6, Dose [Inhibitor]: 0.4 MG/D FROM 90 TO 150 D OF AGE BEGINNING 30 D POST CARCINOGEN TREATMENT (STUDY DURATION: 9 MO AFTER DMBA TREATMENT), Route [Inhibitor]: SUBCUTANEOUS, Species: RAT, Strain/Sex: LONG-EVANS/FEMALE, Target Tissue: Type of Lesion: MAMMARY GLAND: FIBROADENOMA, Dose [Carcinogen]: 20 MG ONCE AT 60 D OF AGE, Promoter: NONE USED) was 16%, 0%, 100%, not significant; the “tumour outcome (control, treated, inhibition, significance)” value (Carcinogen: 7,12-DIMETHYLBENZ[A]ANTHRACENE, 57-97-6, Dose [Inhibitor]: 0.4 MG/D FROM 90 TO 150 D OF AGE BEGINNING 30 D POST CARCINOGEN TREATMENT (STUDY DURATION: 9 MO AFTER DMBA TREATMENT), Route [Inhibitor]: SUBCUTANEOUS, Species: RAT, Strain/Sex: SPRAGUE-DAWLEY/FEMALE, Target Tissue: Type of Lesion: MAMMARY GLAND: CARCINOMA, Dose [Carcinogen]: 5 MG ONCE AT 60 D OF AGE, Promoter: NONE USED) was 85%, 52%, 39%, p<0.05; the “tumour outcome (control, treated, inhibition, significance)” value (Carcinogen: 7,12-DIMETHYLBENZ[A]ANTHRACENE, 57-97-6, Dose [Inhibitor]: 0.4 MG/D FROM 90 TO 150 D OF AGE BEGINNING 30 D POST CARCINOGEN TREATMENT (STUDY DURATION: 9 MO AFTER DMBA TREATMENT), Route [Inhibitor]: SUBCUTANEOUS, Species: RAT, Strain/Sex: SPRAGUE-DAWLEY/FEMALE, Target Tissue: Type of Lesion: MAMMARY GLAND: FIBROADENOMA, Dose [Carcinogen]: 5 MG ONCE AT 60 D OF AGE, Promoter: NONE USED) is listed as 22%, 10%, 54%, not significant; the “tumour outcome (control, treated, inhibition, significance)” value (Carcinogen: 7,12-DIMETHYLBENZ[A]ANTHRACENE, 57-97-6, Dose [Inhibitor]: 0.4 MG/D FROM 90 TO 150 D OF AGE BEGINNING 30 D POST CARCINOGEN TREATMENT (STUDY DURATION: 12 MO AFTER DMBA TREATMENT), Route [Inhibitor]: SUBCUTANEOUS, Species: RAT, Strain/Sex: SPRAGUE-DAWLEY/FEMALE, Target Tissue: Type of Lesion: MAMMARY GLAND: CARCINOMA, Dose [Carcinogen]: 1.25 MG ONCE AT 60 D OF AGE, Promoter: NONE USED) is reported as 15%, 10%, 33%, not significant; the “tumour outcome (control, treated, inhibition, significance)” value (Carcinogen: 7,12-DIMETHYLBENZ[A]ANTHRACENE, 57-97-6, Dose [Inhibitor]: 0.4 MG/D FROM 90 TO 150 D OF AGE BEGINNING 30 D POST CARCINOGEN TREATMENT (STUDY DURATION: 12 MO AFTER DMBA TREATMENT), Route [Inhibitor]: SUBCUTANEOUS, Species: RAT, Strain/Sex: SPRAGUE-DAWLEY/FEMALE, Target Tissue: Type of Lesion: MAMMARY GLAND: FIBROADENOMA, Dose [Carcinogen]: 1.25 MG ONCE AT 60 D OF AGE, Promoter: NONE USED) is reported as 73%, 65%, 11%, not significant. Moreover, the “tumour outcome (control, treated, inhibition, significance)” value runs as follows: (Carcinogen: 7,12-DIMETHYLBENZ[A]ANTHRACENE, 57-97-6, Dose [Inhibitor]: 0.4 MG/D FROM 90 TO 150 D OF AGE BEGINNING POST CARCINOGEN TREATMENT (STUDY DURATION: 6 MO AFTER DMBA TREATMENT), Route [Inhibitor]: SUBCUTANEOUS, Species: RAT, Strain/Sex: SPRAGUE-DAWLEY/FEMALE, Target Tissue: Type of Lesion: MAMMARY GLAND: CARCINOMA, Dose [Carcinogen]: 20 MG ONCE AT 60 D OF AGE, Promoter: NONE USED) 96%, 87%, 9%, p<0.05; (Carcinogen: 7,12-DIMETHYLBENZ[A]ANTHRACENE, 57-97-6, Dose [Inhibitor]: 0.4 MG/D FROM 93 TO 160 D OF AGE BEGINNING 30 D POST CARCINOGEN TREATMENT (STUDY DURATION: 9 MO AFTER DMBA TREATMENT), Route [Inhibitor]: SUBCUTANEOUS, Species: RAT, Strain/Sex: LEWIS/FEMALE, Target Tissue: Type of Lesion: MAMMARY GLAND: CARCINOMA, Dose [Carcinogen]: 10 MG AT 56 AND 63 D OF AGE, Promoter: NONE USED) 94%, 55%, 41%, p<0.05; (Carcinogen: 7,12-DIMETHYLBENZ[A]ANTHRACENE, 57-97-6, Dose [Inhibitor]: 6 MG/KG 6/WK FOR 80 OR 100 D BEGINNING 1 D POST CARCINOGEN DOSE (STUDY DURATION: 245 D), Route [Inhibitor]: INTRAPERITONEAL, Species: RAT, Strain/Sex: CFE/FEMALE, Target Tissue: Type of Lesion: MAMMARY GLAND: NOT SPECIFIED, Dose [Carcinogen]: 2.5 MG 1/D FOR 2 D, Promoter: NONE USED) 17/18 (94%), 16/19 (84%), 11%, not significant; (Carcinogen: 17-BETA-ESTRADIOL, 50-28-2, Dose [Inhibitor]: 0.1 MG, DAILY WITH CARCINOGEN AT 1 MO OF AGE FOR 22 MO (STUDY DURATION: 22 MO), Route [Inhibitor]: SUBCUTANEOUS, Species: MOUSE, Strain/Sex: C3H/FEMALE, Target Tissue: Type of Lesion: MAMMARY GLAND: TUMOR, Dose [Carcinogen]: 0.5 MG/L IN DRINKING WATER DAILY CONCURRENTLY WITH INHIBITOR FOR 22 MO, Promoter: NONE USED) 27/99 (27%), 9/100 (9%), 67%, p<0.05; (Carcinogen: 17BETA-ESTRADIOL, 50-28-2, Dose [Inhibitor]: 0.1 MG 1/D FOR 19 MO BEGINNING CONCURRENTLY WITH CARCINOGEN DOSE (STUDY DURATION: 19 MO), Route [Inhibitor]: SUBCUTANEOUS, Species: MOUSE, Strain/Sex: C3H/FEMALE, Target Tissue: Type of Lesion: MAMMARY GLAND: CARCINOMA, Dose [Carcinogen]: 0.5 MG/L IN DRINKING WATER BEGINNING AT 30 D OF AGE FOR 19 MO, Promoter: NONE USED) 27/99 (27%), 9/100 (9%), 67%, p<0.001; (Carcinogen: AZOXYMETHANE, 25843-45-2, Dose [Inhibitor]: 0, 2 MG/KG BW SUSPENDED IN 1 ML/MG OLIVE OIL 1/2 D FOR STUDY DURATION (STUDY DURATION: 30 WK), Route [Inhibitor]: SUBCUTANEOUS, Species: RAT, Strain/Sex: WISTAR/MALE, Target Tissue: Type of Lesion: COLON: TUMOR, Dose [Carcinogen]: 7.4 MG/KG IN 0.9% NACL 1/WK FOR 10 WK) 9/17 (53%), 8/20 (40%), 25%, not significant. Further, the “tumour outcome (control, treated, inhibition, significance)” value was 10/12 (83%), 7/12 (58%), 30%, not calculated (Carcinogen: DIETHYLSTILBESTROL, 56-53-1, Dose [Inhibitor]: 0.5 MG 5/WK FOR 9 MO CONCURRENTLY WITH CARCINOGEN DOSE (90 MG TOTAL DOSE) (STUDY DURATION: 9 MO), Route [Inhibitor]: SUBCUTANEOUS, Species: HAMSTER, Strain/Sex: SYRIAN/MALE, Target Tissue: Type of Lesion: KIDNEY: EPITHELIAL NEOPLASM, Dose [Carcinogen]: 0.6 MG 3/WK FOR 9 MO (65 MG TOTAL DOSE), Promoter: NONE USED) and 97%, 84%, 13%, not significant (Carcinogen: DIMETHYLBENZ[A]ANTHRACENE, 57-97-6, Dose [Inhibitor]: 1 MG ONCE ON D 2 OF DIESTRUS AND ONCE AT PROESTRUS (STUDY DURATION: 26 WK), Route [Inhibitor]: INTRAPERITONEAL, Species: RAT, Strain/Sex: SPRAGUE-DAWLEY/FEMALE, Target Tissue: Type of Lesion: MAMMARY GLAND: NOT SPECIFIED, Dose [Carcinogen]: 5 MG ONCE AT 50 D OF AGE 30 HR POST 1ST AGENT DOSE, Promoter: NONE USED).
